Consider six compounds from ChEMBL document CHEMBL1127412, “PRO_LIGAND: an approach to de novo molecular design. 2. Design of novel molecules from molecular field analysis (MFA) models and pharmacophores” (J Med Chem, 1994).

Molecules are shown by their SMILES. Non-standard residues stand in square brackets, D forms with d. Residues, ends and D or L forms follow the SMILES beside them. Nle = CCCC[C@H](N)C(=O)O

The assay has as its target Angiotensin-converting enzyme (Homo sapiens, UniProt P12821). As to the kind of experiment: Inhibition against ACE.
Turning to `C[C@H](NC(=O)[C@@H](N)CCCNC(=N)N)C(=O)N1CCC[C@H]1C(=O)O` (H-Arg-Ala-Pro-OH), 16 µM corresponded to half-maximal inhibition (IC50).
Next, `C[C@H](NC(=O)[C@@H](N)Cc1ccccc1)C(=O)N1CCC[C@H]1C(=O)O` (H-Phe-Ala-Pro-OH): 4.2 µM; `CC[C@H](C)[C@H](N)C(=O)N[C@@H](Cc1ccc(O)cc1)C(=O)O` (H-Ile-Tyr-OH): 3.7 µM; `CC(C)C[C@H](N)C(=O)N[C@@H](C)C(=O)N1CCC[C@H]1C(=O)O` (H-Leu-Ala-Pro-OH): 2.3 µM.
To `N[C@@H](Cc1ccccc1)C(=O)N1CCC[C@H]1C(=O)N1CCC[C@H]1C(=O)O` (H-Phe-Pro-Pro-OH) belongs 78 µM.
Next, `CCCC[C@H](N)C(=O)N[C@@H](C)C(=O)N1CCC[C@H]1C(=O)O` (H-[Nle]-Ala-Pro-OH): 0.7 µM.
